Source: patent US5292757A, “1,4-dihydropyridine compounds useful as reverse resistance agents” (Ajinomoto Company, Inc., priority 1991, dated 1994)
In brackets after ≈: the same amount, converted by molar mass. Where a name gives a salt, the structure may show the parent alone.

Assays:
[1] = system: colon 26 cells; test: Regression of tumor in colon 26 bearing mice in combination with adriamycin; assay type: in vivo, mouse (CDF1); conditions: for reducing tumor weight: in combination with adriamycin
Protocol: 20 mg of colon 26 cells were transplanted subcutaneously to CDF1 mice (6 weeks old, female) on day 0. On day 6 the diameter of the tumor was measured and groups of 5 mice were selected having equal average tumor size. On day 7 and 14, 10 mg/kg of adriamycin was injected i.v. and the tested compounds were administered p.o. at 0, 8, 24, 32 hours after the injection of adriamycin. Adriamycin was dissolved in saline to a concentration of 2 mg/ml and the compounds in Example 61 and 62 were dissolved in saline to a concentration of 50 mg/ml. The diameter of the tumor was measured each week and tumor weight was estimated as follows: [formula] (L:long diameter, S:short diameter, mm)

[2] = system: Vincristine-resistant mouse P388 leukemia cells; test: Test of effect on overcoming anti-cancer drug resistance (growth inhibition by vincristine, MTT method); assay type: cell-based
Protocol: Vincristine-resistant mouse P388 leukemia cells were used as an example of resistant cancer cells. RPMI-1640 medium containing 5 μM of 2-mercaptoethanol and 10% fetal calf serum was used for incubation.
The cells were inoculated on a 96-well microplate in 1×10^4 /50 μl/well and 25 μl each of vincristine solution having a specific concentration and an aqeous solution of the test compound (4 μg/ml) was added thereto. After culturing at 37° C. for 2 days, the viable cells were counted by the MTT method and a dose-response curve of vincristine was prepared. Based on the curve, the concentration (IC50) of vincristine producing a 50% inhibition of growth was determined.

[3] = compound dose 250 mg p.o. with adriamycin 10 mg/kg i.v., hydrochloride
[4] = compound dose 500 mg p.o. with adriamycin 10 mg/kg i.v., hydrochloride

Row | Compound | tumor weight [1, 3] | tumor weight [1, 4] | reducing tumor weight [1] | also measured
1 | COC(=O)C1=C(C)N(CCCc2ccccc2)C(C)=C(C(=O)OCCCc2cccnc2)C1c1ccc(OC)c(OC)c1 (single isomer, unassigned; (-)) [Example 62, (-)-1,4-dihydro-4-(3,4-dimethoxyphenyl)-2,6-dimethyl-1-(3-phenylpropyl-3,5-pyridinedicarboxylic acid 3-methyl-5-[3-(3-pyridyl)propyl]ester hydrochloride] | 1.8 g | 1.1 g | effective in reducing tumor weight in combination with adriamycin | –
2 | COc1cccc2c1C(=O)c1c(O)c3c(c(O)c1C2=O)C[C@@](O)(C(=O)CO)C[C@@H]3O[C@H]1C[C@H](N)[C@H](O)[C@H](C)O1 [Adriamycin, reference compound] | – | – | – | tumor weight ([1]; adriamycin 10 mg/kg i.v. alone, no test compound (untreated 4.5 g)): 2.7 g
3 | COC(=O)C1=C(C)N(CCCc2ccccc2)C(C)=C(C(=O)OCCCN2CCN(CC(C)C)CC2)C1c1ccc(OC)c(OC)c1 (stereo not drawn) [Example 3, 1,4-dihydro-4-(3,4-dimethoxyphenyl)-2,6-dimethyl-1-(3-phenylpropyl)-3,5-pyridinedicarboxylic acid 3-methyl-5-[3-(4-isobutylpiperazino)propyl]ester] | – | – | – | IC50 (concentration of vincristine producing a 50% inhibition of growth in the presence of the compound) ([2]; vincristine IC50, test compound present at 1 μg/ml, 37° C., 2 days, MTT): 1.50 ng/mL
4 | COC(=O)C1=C(C)N(CCCc2ccccc2)C(C)=C(C(=O)OCCCc2cccnc2)C1c1ccc(OC)c(OC)c1 (single isomer, unassigned; (+)) [Example 61, (+)-1,4-dihydro-4-(3,4-dimethoxyphenyl)-2,6-dimethyl-1-(3-phenylpropyl)-3,5-pyridinedicarboxylic acid 3-methyl-5-[3-(3-pyridyl)propyl] ester hydrochloride] | 2.2 g | 2 g | effective in reducing tumor weight in combination with adriamycin | –
5 | CC[C@]1(O)C[C@H]2CN(CCc3c([nH]c4ccccc34)[C@@](C(=O)OC)(c3cc4c(cc3OC)N(C=O)[C@H]3[C@@](O)(C(=O)OC)[C@H](OC(C)=O)[C@]5(CC)C=CCN6CC[C@]43[C@@H]65)C2)C1 [vincristine, reference compound] | – | – | – | IC50 ([2]; Mus musculus, P388, 48 h, read-out: IC50 of vincristine alone): 0.05 to 0.1 µg/mL (≈ 0.0606 to 0.121 µM)
